In patent publication US20140213538A1, “LYSOPHOSPHATIDIC ACID RECEPTOR ANTAGONISTS” (InterMune, Inc., priority 2013, published 2014):

Key:
LPA/S1P GPCR of interest = biological target: T1, LPA/S1P GPCR of interest (Homo sapiens, UniProt Q92633); assay: Beta-Arrestin based assay (PathHunter); type: cell-based
T1 construct: host or cells: CHO
Summary of the method: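 EA Parental CHO cells (DiscoverX) were transfected with FuGENE (Roche) using CMV promoter-driven DNA constructs encoding the LPA/S1P GPCR of interest fused to a ProLink tag. Beta-arrestin recruitment in agonist mode was assessed 24-48 hrs later with PathHunter kits. Tests ran in quadruplicate in white 384 well plates, and end point luminescence was fit to a 4 parameter logistic function.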

LPA1 = LPA1 (Homo sapiens, UniProt Q92633); assay: LPA1 Migration Assay (Oris); type: cell-based; parameters: host or cells: primary fibroblasts (lung, dermal), HFL-1, 3T3 and CHO cells expressing LPA1R; conditions: read-out: Cell Migration EC50
Sequence of LPA1 (Q92633 whole entry): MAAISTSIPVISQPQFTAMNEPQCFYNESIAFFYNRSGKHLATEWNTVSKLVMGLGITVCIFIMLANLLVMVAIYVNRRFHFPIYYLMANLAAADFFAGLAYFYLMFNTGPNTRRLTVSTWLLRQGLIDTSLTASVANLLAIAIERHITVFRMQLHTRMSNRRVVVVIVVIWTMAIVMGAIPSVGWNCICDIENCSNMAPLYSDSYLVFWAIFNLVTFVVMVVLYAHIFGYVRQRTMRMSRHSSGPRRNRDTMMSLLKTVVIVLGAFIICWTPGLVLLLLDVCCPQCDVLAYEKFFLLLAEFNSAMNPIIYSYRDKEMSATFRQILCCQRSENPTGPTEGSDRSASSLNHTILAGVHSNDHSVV
From the text: LPA1 Migration Assay Migration of primary fibroblasts (including lung, dermal), HFL-1, 3T3 and CHO cells expressing LPA1R were monitored using the Oris™ assay (Platypus Technologies, Madison, Wis.). These cells were dye (Cell Tracker Green™) loaded and serum starved for 12-24 hrs. In response to chemoattractants such as LPA and serum, the cells migrated inward in to the exclusion (detection) zone. After fixing, fluorescent cells in the detection zone were counted using a high content reader. The ability of LPA1 antagonists to inhibit cell migration is quantified by plotting cell number vs. compound concentration and curve fitting the resulting dose-response curve to a 4 parameter logistic function.

T1 sequence (Q92633 whole entry): as above

SMILES | EC50 (LPA/S1P GPCR of interest) [nM] | EC50 (LPA1) [nM]
C[C@@H](OC(=O)Nc1c(-c2cc3sc(-c4ccc(CC(=O)O)s4)cc3s2)nnn1C)c1ccccc1 [IT179] | 50 to 500 | > 500
Cc1cc(C2(C(=O)O)CC2)ccc1-c1cc2sc(-c3cnn(C)c3NC(=O)O[C@H](C)c3ccccc3)cc2s1 [IT260] | < 50 | 50 to 500
Cc1noc(-c2ccc(-c3ccc(S(=O)(=O)NC(=O)C4CC4)cc3)cc2)c1NC(=O)O[C@H](C)c1ccccc1 [IT138] | < 50 | 50 to 500
Cc1noc(-c2ccc(-c3ccc(Oc4nc5ccccc5cc4C(=O)O)cc3)cc2)c1NC(=O)O[C@H](C)c1ccccc1 [IT482] | < 50 | 50 to 500
Cc1noc(-c2ccc(-c3ccc(S(=O)(=O)CC4CC4)cc3)cc2)c1NC(=O)O[C@H](C)c1ccccc1 [IT174] | > 500 | > 500
Cc1nsc(-c2ccc(-c3cc(F)c(Oc4ccncc4C(=O)O)c(F)c3)cc2)c1NC(=O)O[C@H](C)c1ccccc1 [IT439] | < 50 | > 500
CNS(=O)(=O)c1ccc(-c2ccc(-c3onc(C)c3NC(=O)O[C@H](C)c3ccccc3)cc2)cc1 [IT128] | > 500 | > 500
CCOc1cc(CC(=O)O)ccc1-c1cc2sc(-c3snc(C)c3NC(=O)O[C@H](C)c3ccccc3)cc2s1 [IT192] | > 500 | > 500
C[C@@H](OC(=O)Nc1c(-c2cc3sc(C#CC4(C(=O)O)CC4)cc3s2)nnn1C)c1ccccc1 [IT145] | < 50 | > 500
C[C@@H](OC(=O)Nc1c(-c2cc3sc(-c4ccc(CC(=O)O)c(Cl)c4)cc3s2)cnn1C)c1ccccc1 [IT165] | 50 to 500 | > 500
Cc1noc(-c2ccc(-c3ccc(Oc4ccccc4C(=O)O)nn3)cc2)c1NC(=O)O[C@H](C)c1ccccc1 [IT259] | 50 to 500 | > 500
C[C@@H](OC(=O)Nc1c(-c2cc3sc(-c4ccc(CC(=O)O)s4)cc3s2)cnn1C)c1ccccc1 [IT147] | 50 to 500 | > 500
C[C@@H](OC(=O)Nc1cccnc1C#Cc1cc2sc(C3(C(=O)O)CC3)cc2s1)c1ccccc1 [IT115] | 50 to 500 | > 500
Cc1cc(CC(=O)O)ccc1-c1cc2sc(-c3snc(C)c3NC(=O)O[C@H](C)c3ccccc3)cc2s1 [IT170] | 50 to 500 | > 500
Cc1noc(-c2ccc(-c3ccc(Oc4ccccc4C(=O)O)c(F)c3)cc2)c1NC(=O)O[C@H](C)c1ccccc1 [IT355] | < 50 | < 50
CCOc1cc(CC(=O)O)ccc1-c1cc2sc(-c3cnn(C)c3NC(=O)O[C@H](C)c3ccccc3)cc2s1 [IT190] | > 500 | > 500
Cc1cc(CC(=O)O)ccc1-c1cc2sc(-c3nnn(C)c3NC(=O)O[C@H](C)c3ccccc3)cc2s1 [IT171] | 50 to 500 | > 500
Cc1nnn(-c2ccc(-c3cc(F)c(Oc4ccncc4C(=O)O)c(F)c3)cc2)c1NC(=O)O[C@H](C)c1ccccc1 [IT440] | 50 to 500 | > 500
CCOC(=O)c1cccnc1Oc1c(F)cc(-c2ccc(-c3nnn(C)c3NC(=O)O[C@H](C)c3ccccc3)cc2)cc1F [IT476] | < 50 | > 500

SMILES | EC50 (LPA/S1P GPCR of interest) [nM] | EC50 (LPA1) [nM]
C[C@@H](OC(=O)Nc1c(-c2cc3sc(-c4ccc(C5(C(=O)O)CC5)c(F)c4)cc3s2)nnn1C)c1ccccc1 [IT296] | < 50 | 50 to 500
Cc1c(C#Cc2cnn(C)c2NC(=O)O[C@H](C)c2ccccc2)sc2c(C)c(C3(C(=O)O)CC3)sc12 [IT110] | < 50 | 50 to 500
C[C@@H](OC(=O)Nc1c(-c2cc3sc(-c4ccc(C5(C(=O)O)CC5)c(F)c4F)cc3s2)cnn1C)c1ccccc1 [IT364] | < 50 | 50 to 500
Cc1noc(-c2ccc(-c3ccc(Oc4ccccc4C(=O)O)cn3)cc2)c1NC(=O)O[C@H](C)c1ccccc1 [IT344] | < 50 | 50 to 500
Cc1noc(-c2ccc(-c3ccc4c(c3)CCCC4C(=O)O)cc2)c1NC(=O)O[C@H](C)c1ccccc1 (mixture of isomers) [IT038] | 50 to 500 | > 500
Cc1nsc(-c2ccc(-c3cc(F)c(OC(C)(C)C(=O)O)c(F)c3)cc2)c1NC(=O)O[C@H](C)c1ccccc1 [IT502] | 50 to 500 | > 500
C[C@@H](OC(=O)Nc1c(-c2cc3sc(-c4cc(F)c(CC(=O)O)c(F)c4)cc3s2)cnn1C)c1ccccc1 [IT157] | 50 to 500 | > 500
C[C@@H](OC(=O)Nc1c(-c2cc3sc(-c4ccc(C5(C(=O)O)CC5)cc4Cl)cc3s2)nnn1C)c1ccccc1 [IT390] | < 50 | 50 to 500
Cc1nsc(-c2cc3sc(-c4cc(F)c(C5(C(=O)O)CC5)c(F)c4)cc3s2)c1NC(=O)O[C@H](C)c1ccccc1 [IT263] | < 50 | 50 to 500
Cc1nsc(-c2cc3sc(-c4cnc(C5(C(=O)O)CC5)c(F)c4)cc3s2)c1NC(=O)O[C@H](C)c1ccccc1 [IT394] | < 50 | 50 to 500
Cc1nsc(-c2ccc(-c3ccc(CC(=O)O)s3)cc2)c1NC(=O)O[C@H](C)c1ccccc1 [IT141] | > 500 | > 500
Cc1nsc(-c2ccc(NC(=O)c3csc(C4(C(=O)O)CC4)c3)cc2)c1NC(=O)O[C@H](C)c1ccccc1 [IT193] | 50 to 500 | > 500
C[C@@H](OC(=O)Nc1c(-c2cc3sc(-c4cc(Cl)c(C5(C(=O)O)CC5)cc4F)cc3s2)nnn1C)c1ccccc1 [IT285] | < 50 | 50 to 500
Cc1nsc(-c2cc(F)c(-c3nc4sc(C5(C(=O)O)CC5)cc4s3)cc2F)c1NC(=O)O[C@H](C)c1ccccc1 [IT201] | < 50 | 50 to 500
C[C@@H](OC(=O)Nc1c(-c2cc3sc(-c4ccc(C5(C(=O)O)CC5)c(Cl)c4)cc3s2)nnn1C)c1ccccc1 [IT266] | < 50 | 50 to 500
C[C@@H](OC(=O)Nc1c(-c2cc(F)c(-c3nc4sc(C5(C(=O)O)CC5)cc4s3)cc2F)cnn1C)c1ccccc1 [IT279] | < 50 | 50 to 500
C[C@@H](OC(=O)Nc1c(-c2cc3sc(-c4ccc(CC(=O)O)cc4N)cc3s2)nnn1C)c1ccccc1 [IT181] | > 500 | > 500
Cc1nsc(-c2ccc(-c3ccc(OC(C)(C)C(=O)O)c(F)c3)cc2)c1NC(=O)O[C@H](C)c1ccccc1 [IT507] | 50 to 500 | > 500
Cc1noc(-c2cc3cc4sc(CC(=O)O)cc4cc3s2)c1NC(=O)O[C@H](C)c1ccccc1 [IT499] | > 500 | > 500

Second part, the molecule after the results:

EC50 (LPA/S1P GPCR of interest) [nM] | EC50 (LPA1) [nM] | SMILES
< 50 | 50 to 500 | C[C@@H](OC(=O)Nc1c(-c2ccc(-c3ccc(Oc4ccc(F)cc4C(=O)O)cc3)cc2)cnn1C)c1ccccc1 [IT461]
50 to 500 | > 500 | Cc1nnn(-c2ccc(-c3ccc(Oc4ccccc4C(=O)O)cc3)cc2)c1NC(=O)O[C@H](C)c1ccccc1 [IT310]
50 to 500 | > 500 | C[C@@H](OC(=O)Nc1c(-c2ccc(-c3ccc(OC4(C(=O)O)CC4)cc3)cc2)oc2ccccc12)c1ccccc1 [IT512]
50 to 500 | > 500 | C[C@@H](OC(=O)Nc1c(-c2ccc(-c3cc(F)c(OC4(C(=O)O)CC4)c(F)c3)cc2)oc2ccccc12)c1ccccc1 [IT491]
< 50 | 50 to 500 | C[C@@H](OC(=O)Nc1c(-c2cc3sc(-c4ccc(C5(C(=O)O)CC5)c(F)c4)cc3s2)cnn1C)c1ccccc1 [IT295]
< 50 | 50 to 500 | CCOC(=O)c1ccccc1Oc1ccc(-c2ccc(-c3nnn(C)c3NC(=O)O[C@H](C)c3ccccc3)cc2)cc1 [IT477]
50 to 500 | > 500 | C[C@@H](OC(=O)Nc1c(-c2ccc(-c3ccc(OC4(C(=O)O)CC4)c(F)c3)cc2)oc2ccccc12)c1ccccc1 [IT492]
50 to 500 | > 500 | Cc1nnn(-c2ccc(-c3ccc(Oc4cccc(F)c4C(=O)O)cc3)cc2)c1NC(=O)O[C@H](C)c1ccccc1 [IT457]
< 50 | < 50 | C[C@@H](OC(=O)Nc1c(-c2ccc(-c3ccc(Oc4cc(F)ccc4C(=O)O)cc3)cc2)nnn1C)c1ccccc1 [IT468]
50 to 500 | > 500 | Cc1nsc(-c2ccc(-c3ccc(OC(C)(C)C(=O)O)cc3)cc2)c1NC(=O)O[C@H](C)c1ccccc1 [IT509]
< 50 | 50 to 500 | C[C@@H](OC(=O)Nc1c(-c2ccc(-c3cc(F)c(OC4(C(=O)O)CC4)c(F)c3)cc2)nnn1C)c1ccccc1 [IT312]
< 50 | 50 to 500 | C[C@@H](OC(=O)Nc1c(-c2ccc(-c3ccc(OC4(C(=O)O)CC4)cc3)cc2)cnn1C)c1ccccc1 [IT511]
50 to 500 | > 500 | Cc1noc(-c2ccc(-c3ccc(S(N)(=O)=O)cc3)cc2)c1NC(=O)O[C@H](C)c1ccccc1 [IT129]
< 50 | 50 to 500 | Cc1noc(-c2ccc(-c3ccc(Oc4ncncc4C(=O)O)cc3)cc2)c1NC(=O)O[C@H](C)c1ccccc1 [IT230]
> 500 | 50 to 500 | C[C@@H](OC(=O)Nc1c(-c2ccc(C#CC(=O)N[C@@H](C(=O)O)c3ccccc3)cc2)cnn1C)c1ccccc1 [IT401]
< 50 | 50 to 500 | Cc1noc(-c2ccc(-c3ccc(Oc4ccsc4C(=O)O)cc3)cc2)c1NC(=O)O[C@H](C)c1ccccc1 [IT428]
< 50 | 50 to 500 | Cc1noc(-c2ccc(-c3ccc(Oc4ccc(F)cc4C(=O)O)cc3)cc2)c1NC(=O)O[C@H](C)c1ccccc1 [IT459]
